Experimental data from US20100273752A1, “MEQUITAZINE FOR TREATING OR PREVENTING PATHOLOGIES INVOLVING HISTAMINE H4 RECEPTORS” (PIERRE FABRE MEDICAMENT, priority 2007, published 2010).
“And” between values parts separate entries of the source, which are not always exact repeats. Identical values can stand only once.

Key:
[1] = target: T1, histamine H4 receptor (Homo sapiens, UniProt Q9H3N8); test: Affinity constants by competition with tritiated histamine on membrane preparations from CHO cells expressing H4 receptor; type: binding; design: expressed in transfected cells; host or cells: CHO; settings: CHO cell membranes
From the text: In a second series of experiments, the affinity constants of these three compounds are precisely determined by competition with the tritiated histamine radioligand on membrane preparations from CHO cells expressing in a stable manner histamine H4 receptor.

[2] = target: H4 receptor (Homo sapiens, UniProt Q9H3N8); test: G protein activation test ([35S] GTP binding)
[3] = Transcutaneous passage through human skin explants in dynamic diffusion chamber; type: in vitro ADME
From the text: The importance of H4 receptor in pruritus was recently established. Thus, an antagonist targeting the histamine H4 receptors involved in dermatological pruritus can constitute a weapon of choice for breaking behaviors related to pruritus and, consequently, for avoiding superinfections generated by the skin lesions caused by pruritus. […] To this end, it is useful to have an H4 antihistamine likely to cross the cutaneous barrier in order to reach its target on subcutaneous mast cells. […] Human skin explants were placed in a dynamic diffusion chamber (diffusion area of 0.636 cm^2), with the dermis in contact with the receptor medium (water; 0.9% NaCl 0.9% NaN3 0.1%/ethanol; 75/25; v/v). The flow rate is 1.5 ml/h. The study is carried out at 32° C. The solution containing the compound (500 μl to 2.5 mg/ml, or 10 μCi per cell) is deposited at T=0. The study of transcutaneous passage is carried out under occlusion. The receiving liquid is sampled at 3, 6, 9, 12, 16, 20 and 24 hours.

[4] = target: T1, histamine H4 receptor; test: Receptor binding in vitro, HEK-293 cells stably transfected with human H4 receptor, 10 nM tritiated histamine; design: expressed in transfected cells; host or cells: HEK-293
Description: The goal of this study is to determine an affinity constant of the compound with respect to human histamine H4 receptor in vitro. The model chosen is HEK-293 cells transfected in a stable fashion by cDNA coding for human H4 receptor (Liu et al., 2001). First is determined the affinity of cells expressing each type of receptor for a ligand for which it was also established that it bound 100% to the receptor. The optimal ligand for the recombinant receptor is 10 nM tritiated histamine. Receptor binding is defined as follows: the difference between total binding and the nonspecific binding determined in the presence of excess cold ligand. The results are expressed as a percentage of optimal binding obtained with the ligand model (100%).

[5] = system: histamine-induced bronchoconstriction; test: Histamine-induced bronchoconstriction, Konzett model, intravenous administration; type: in vivo, guinea pig
Description: The goal of these experiments is to evaluate the activity of the three compounds […] and […] with respect to histamine-induced bronchoconstriction in the Konzett (1940) guinea pig model. Previously we saw that the three compounds exerted antihistamine activity with respect to H4 receptor in vitro, while on the other hand in vivo only […] and […] appeared anti-inflammatory when the inflammation is generated by histamine. It seems that […] loses its activity when it is administered by oral route. With an aim of analyzing the activity by intravenous route of the three products, the following test was conducted. The animals are ventilated, by means of a constant pressure respiratory pump, by a volume of air in excess. […] The variations observed represent changes in bronchial tonus. Histamine-induced bronchoconstriction causes an increase in the excess volume measured by the sensor. The various compounds are administered by way of the jugular vein, which is catheterized beforehand. Histamine stimulation is then carried out by intravenous route at a dose of 7 μg/kg.

[6] = system: respiratory functions; test: Effects on respiratory functions after oral administration in male Wistar rats; type: in vivo, rat
Description: The effects of […] (0.5, 50 and 100 mg/kg) on respiratory functions are analyzed after oral (per os) administration in male Wistar rats (8 rats/dose). […] (100 mg/kg) administered under the same conditions is used as a reference substance. Theophylline (100 mg/kg), administered under the same experimental conditions, is used as a reference substance. Carboxymethyl cellulose (0.5%) in distilled water is used as a control vehicle. At the end of the testing period (i.e., 360 minutes after administration of the dose), the behavior of the animals as well as the diameter of their pupils (miosis/mydriasis) are evaluated. Blood samples are taken from each rat (except those pertaining to the theophylline group) in order to analyze the concentration of the substance in the blood. […]

[7] = system: plantar edema induced by histamine; test: Plantar edema induced by histamine in the mouse, oral administration; type: in vivo; settings: for Inhibition of inflammation (%): 3 mg/kg oral
Description: The goal of this experiment was to detect possible anti-inflammatory activity of […], […] and […] with respect to plantar edema induced by histamine in the mouse. The principle of the test is inspired by the publication of Kreutner et al. (2000). All groups were composed of 10 animals. The products were administered by oral route (25 ml/kg) in pretreatment, at various times: 120, 90, 60 and 30 minutes before the inflammation-producing agent. Sixty minutes later, an injection (10 μl) in the paw was given under isoflurane anesthesia. The right paw received 13 μg of histamine dihydrochloride and the left paw physiological saline solution (histamine vehicle). Thirty minutes after the injections, the animals were euthanized by cervical dislocation. The paws were sampled and weighed. The edemas were quantified by the difference between the weights of the paws (weight of right paw-weight of left paw).

[8] = system: bronchoconstriction induced by acetylcholine; test: Inhibition of acetylcholine-induced bronchoconstriction in anaesthetized ventilated guinea pigs; type: in vivo, guinea pig
Description: Guinea pigs are anaesthetized and artificially ventilated. The air penetrating the lungs is measured by means of a sensor. Each inspiration is thus quantified. Bronchoconstriction is then induced by intravenous injection of acetylcholine. The effect of acetylcholine is a direct and immediate modification of bronchial tonus. The bronchoconstriction effects of acetylcholine are evaluated in mm at the peak of the effects.

H4 receptor, sequence (Q9H3N8 whole entry, the tested form may be a part): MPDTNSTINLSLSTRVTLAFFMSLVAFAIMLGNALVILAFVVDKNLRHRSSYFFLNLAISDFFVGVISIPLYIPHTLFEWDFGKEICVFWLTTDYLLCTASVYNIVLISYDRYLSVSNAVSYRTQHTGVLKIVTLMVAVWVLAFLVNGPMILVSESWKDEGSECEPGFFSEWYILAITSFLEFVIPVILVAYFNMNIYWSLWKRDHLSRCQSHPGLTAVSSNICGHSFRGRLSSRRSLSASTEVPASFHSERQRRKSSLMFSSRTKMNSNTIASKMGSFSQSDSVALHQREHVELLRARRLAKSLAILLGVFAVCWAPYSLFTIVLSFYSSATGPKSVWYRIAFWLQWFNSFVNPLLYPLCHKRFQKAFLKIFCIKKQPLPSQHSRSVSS
T1 sequence (Q9H3N8 whole entry): as the sequence (Q9H3N8 whole entry, the tested form may be a part) above

**Q.** With `c1ccc2c(c1)Sc1ccccc1N2CC1CN2CCC1CC2` (racemic) [L0013, 10-[(3R,3S)-1-azabicyclo[2.2.2]oct-3-ylmethyl]-10H-phenothiazine] as the compound, how does the Ki [1] read?
**A.** 1630 ± 200 nM

**Q.** And the “Effect on G protein activation induced by histamine” value ([2]; 0.1 μM histamine, FIG. 1a)?
**A.** antagonize the activating action

**Q.** And the “Functional character at H4 receptor (basal activity in the absence of agonist)” value ([2]; FIG. 1b)?
**A.** inverse agonists

**Q.** What about the “Accumulated quantity in receiving liquid (receptor zone) at 24 hours” value ([3]; 24 hours) of the same compound?
**A.** 107 μg/cm^2 and 107±28 μg/cm^2

**Q.** What about the “Nearly constant maximum flow” value ([3]; human, 2.5 mg/ml) of the same compound?
**A.** 5.4 μg/cm^2/h

**Q.** What about the “Time at which nearly constant maximum flow is reached” value ([3]; human, 2.5 mg/ml) of the same compound?
**A.** 16 h

**Q.** What about the “Amount of compound in dermis” value ([3]; human, 24 h, 2.5 mg/ml) of the same compound?
**A.** 45±14 μg/cm^2

**Q.** And the “Amount of compound in epidermis” value ([3]; human, 24 h, 2.5 mg/ml)?
**A.** 56±17 μg/cm^2

**Q.** What about the “Total amount of compound in skin (epidermis and dermis)” value ([3]; human, 24 h, 2.5 mg/ml) of the same compound?
**A.** 101 μg/cm^2

**Q.** What about the Transcutaneous passage ([3]; human, 24 h, 2.5 mg/ml) of the same compound?
**A.** approx. 100 μg/cm^2/24 h

**Q.** What about the “Binding to human histamine H4 receptors (in words)” value [4] of the same compound?
**A.** strongly bind

**Q.** And the “Inhibition at 5 min (%)” value ([5]; 12.5 mg/kg i.v.)?
**A.** −35 ± 6%

**Q.** And the “Inhibition at 30 min (%)” value ([5]; 12.5 mg/kg i.v.)?
**A.** −39 ± 7%

**Q.** And the “Inhibition at 5 min (%)” value ([5]; 25 mg/kg i.v.)?
**A.** −35 ± 5%

**Q.** What about the “Inhibition at 30 min (%)” value ([5]; 25 mg/kg i.v.) of the same compound?
**A.** −61 ± 5%

**Q.** What about the “Inhibition at 5 min (%)” value ([5]; 37.5 mg/kg i.v.) of the same compound?
**A.** −26 ± 4%

**Q.** What about the “Inhibition at 30 min (%)” value ([5]; 37.5 mg/kg i.v.) of the same compound?
**A.** −51 ± 8%

**Q.** And the “Inhibition at 5 min (%)” value ([5]; 50 mg/kg i.v.)?
**A.** −37 ± 5%

**Q.** What about the “Inhibition at 30 min (%)” value ([5]; 50 mg/kg i.v.) of the same compound?
**A.** −57 ± 7%

**Q.** What about the “Change in respiratory rate” value ([6]; 100 mg/kg p.o., at 60 minutes) of the same compound?
**A.** +80%

**Q.** And the “Change in respiratory volume” value ([6]; 100 mg/kg p.o., at 60 minutes)?
**A.** −26%

**Q.** What about the “Change in relaxation time” value ([6]; 100 mg/kg p.o., at 120 minutes) of the same compound?
**A.** −30%

**Q.** What about the Pupil diameter ([6]; rat, in vivo) of the same compound?
**A.** appreciable increase

**Q.** And the “Inhibition of inflammation (%)” value ([7]; pretreatment −30 min)?
**A.** −54%

**Q.** What about the “Inhibition of inflammation (%)” value ([7]; pretreatment −60 min) of the same compound?
**A.** −65%

**Q.** And the “Inhibition of inflammation (%)” value ([7]; pretreatment −90 min)?
**A.** −82%

**Q.** What about the “Inhibition of inflammation (%)” value ([7]; pretreatment −120 min) of the same compound?
**A.** −80%

**Q.** And the “Anti-inflammatory activity, range over pretreatment times” value ([7]; oral, 120, 90, 60 and 30 minutes beforehand)?
**A.** −54% to −82%

**Q.** And the “Percentage of inhibition (%)” value ([8]; dose 25 μg/kg)?
**A.** −8 ± 1%

**Q.** And the “Percentage of inhibition (%)” value ([8]; dose 50 μg/kg)?
**A.** −25 ± 2%

**Q.** And the “Percentage of inhibition (%)” value ([8]; dose 100 μg/kg)?
**A.** −24 ± 6%
